Test results reported in ChEMBL document CHEMBL5370665, “Insight from Linker Investigations: Discovery of a Novel Phenylbenzothiazole Necroptosis Inhibitor Targeting Receptor-Interacting Protein Kinase 1 (RIPK1) from a Phenoxybenzothiazole Compound with Dual RIPK1/3 Targeting Activity” (J Med Chem, 2023).
The source made the active and inactive calls. The calls are words filed in the database; no cut-off is given here.

Assays:
[1] = Acute toxicity in mouse assessed as death at 100 to 200 mg/kg,IG and measured upto 14 days; type: organism-based; details: in vivo, po, 336 h, dose 100-200 mg/kg, time < 14 day
[2] = target: T1, Mixed lineage kinase domain-like protein (Homo sapiens) (UniProt Q8NB16); assay: Inhibition of MLKL phosphorylation in TSZ induced human HT-29 cells at 1 to 1000 nM pretreated with compound followed by TSZ stimulation for 6 hrs by Western blot analysis; type: cell-based; details: dose 1-1000 nM
T1 sequence (whole entry): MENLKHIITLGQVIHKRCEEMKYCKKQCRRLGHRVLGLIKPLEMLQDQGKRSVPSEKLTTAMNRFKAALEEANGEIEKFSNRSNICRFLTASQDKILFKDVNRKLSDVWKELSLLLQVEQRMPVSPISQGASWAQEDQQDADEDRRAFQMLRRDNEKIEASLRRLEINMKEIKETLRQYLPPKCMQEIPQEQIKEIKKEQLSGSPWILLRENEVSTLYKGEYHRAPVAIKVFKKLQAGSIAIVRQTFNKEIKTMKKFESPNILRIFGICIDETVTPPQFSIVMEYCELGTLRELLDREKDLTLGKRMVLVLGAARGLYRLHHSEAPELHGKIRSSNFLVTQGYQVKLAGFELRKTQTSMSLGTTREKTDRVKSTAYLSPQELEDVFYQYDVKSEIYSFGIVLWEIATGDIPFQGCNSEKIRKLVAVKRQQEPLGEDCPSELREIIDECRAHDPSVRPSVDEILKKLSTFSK

[3] = target: T2, Receptor-interacting serine/threonine-protein kinase 1 (Homo sapiens) (UniProt Q13546); assay: Inhibition of RIPK1 phosphorylation in TSZ induced human HT-29 cells at 1 uM pretreated with compound followed by TSZ stimulation for 6 hrs by Western blot analysis; type: cell-based
T2 sequence (whole entry): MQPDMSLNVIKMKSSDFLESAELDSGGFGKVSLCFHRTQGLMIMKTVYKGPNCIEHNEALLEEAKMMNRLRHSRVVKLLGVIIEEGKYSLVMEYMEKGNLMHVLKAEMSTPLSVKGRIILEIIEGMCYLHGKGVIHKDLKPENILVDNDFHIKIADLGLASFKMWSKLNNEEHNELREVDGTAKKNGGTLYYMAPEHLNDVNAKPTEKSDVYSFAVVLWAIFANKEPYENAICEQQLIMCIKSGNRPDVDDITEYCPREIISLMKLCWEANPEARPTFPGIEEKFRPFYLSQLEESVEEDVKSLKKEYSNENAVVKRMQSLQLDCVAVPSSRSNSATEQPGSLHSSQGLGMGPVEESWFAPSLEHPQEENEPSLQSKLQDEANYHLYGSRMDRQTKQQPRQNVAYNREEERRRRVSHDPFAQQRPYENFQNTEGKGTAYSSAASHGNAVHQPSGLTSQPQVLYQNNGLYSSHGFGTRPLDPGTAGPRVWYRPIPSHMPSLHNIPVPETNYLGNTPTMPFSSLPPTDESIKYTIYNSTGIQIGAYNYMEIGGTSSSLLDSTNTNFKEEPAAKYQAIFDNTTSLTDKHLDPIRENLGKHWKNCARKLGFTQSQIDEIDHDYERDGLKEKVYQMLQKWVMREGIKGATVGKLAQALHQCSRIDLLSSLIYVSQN

[4] = Acute toxicity in mouse assessed as pathological damage in lung at 100 to 200 mg/kg,IG and measured after 14 days by H and E staining based microscopy; type: organism-based; details: in vivo, po, 336 h, dose 100-200 mg/kg, time 14 day
[5] = system: Mus musculus; assay: Anti-inflammatory activity against C57BL/6J mouse model of TNFalpha-induced systemic inflammatory response syndrome (SIRS) assessed as decrease in IL-6 level in liver at 1.25 to 5 mg/kg,po 2 hrs prior to mTNFalpha and z-VAD-FMK stimulation for 8 hrs by ELISA; type: functional, organism-based; details: dose 1.25-5 mg/kg, time 10.0 hrs
[6] = Acute toxicity in mouse assessed as pathological damage in liver at 100 to 200 mg/kg,IG and measured after 14 days by H and E staining based microscopy; type: organism-based; details: in vivo, po, 336 h, dose 100-200 mg/kg, time 14 day
[7] = system: Mus musculus; assay: Anti-inflammatory activity against C57BL/6J mouse model of TNFalpha-induced systemic inflammatory response syndrome (SIRS) assessed as decrease in IL-6 level in kidney at 1.25 to 5 mg/kg,po 2 hrs prior to mTNFalpha and z-VAD-FMK stimulation for 8 hrs by ELISA; type: functional, organism-based; details: dose 1.25-5 mg/kg, time 10.0 hrs
[8] = system: Mus musculus; assay: Anti-inflammatory activity against C57BL/6J mouse model of TNFalpha-induced systemic inflammatory response syndrome (SIRS) assessed as decrease in IL-6 level in spleen at 1.25 to 5 mg/kg,po 2 hrs prior to mTNFalpha and z-VAD-FMK stimulation for 8 hrs by ELISA; type: functional, organism-based; details: dose 1.25-5 mg/kg, time 10.0 hrs
[9] = system: HT-29; assay: Anti-necroptic activity against human HT-29 cells assessed as inhibition of TSZ (TNFalpha, Smac mimetic and z-VAD-FMK) induced necroptosis pretreated with compound followed by TSZ stimulation for 16 to 18 hrs by CellTiter-Glo Luminescent cell viability assay; type: functional, cell-based
[10] = Acute toxicity in mouse assessed as body weight loss at 100 to 200 mg/kg,IG and measured upto 14 days; type: organism-based; details: in vivo, po, 336 h, dose 100-200 mg/kg, time < 14 day
[11] = Acute toxicity in mouse assessed as pathological damage in kidney at 100 to 200 mg/kg,IG and measured after 14 days by H and E staining based microscopy; type: organism-based; details: in vivo, po, 336 h, dose 100-200 mg/kg, time 14 day
[12] = system: HT-29; assay: Anti-apoptotic activity against human HT-29 cells assessed as inhibition of TC (human TNFalpha, cycloheximide) induced apoptosis upto 1 uM pretreated with compound followed by TC stimulation for 36 hrs by CellTiter-Glo Luminescent cell viability assay; type: functional, cell-based
[13] = system: Mus musculus; assay: Anti-inflammatory activity against C57BL/6J mouse model of TNFalpha-induced systemic inflammatory response syndrome (SIRS) assessed as decrease in […] IL-1beta level in heart at 1.25 to 5 mg/kg,po 2 hrs prior to mTNFalpha and z-VAD-FMK stimulation for 8 hrs by ELISA; type: functional, organism-based; details: dose 1.25-5 mg/kg, time 10.0 hrs
[14] = system: Mus musculus; assay: Anti-inflammatory activity against C57BL/6J mouse model of TNFalpha-induced systemic inflammatory response syndrome (SIRS) assessed as increase in body temperature at 2.5 mg/kg,po 2 hrs prior to mTNFalpha and z-VAD-FMK stimulation and measured upto 18 hrs by electric thermometer analysis; type: functional, organism-based; details: time 20.0 hrs
[15] = system: Mus musculus; assay: Anti-inflammatory activity against C57BL/6J mouse model of TNFalpha-induced systemic inflammatory response syndrome (SIRS) assessed as increase in body temperature at 5 mg/kg,po 2 hrs prior to mTNFalpha and z-VAD-FMK stimulation and measured upto 18 hrs by electric thermometer analysis; type: functional, organism-based; details: time 20.0 hrs
[16] = Acute toxicity in mouse assessed as pathological damage in spleen at 100 to 200 mg/kg,IG and measured after 14 days by H and E staining based microscopy; type: organism-based; details: in vivo, po, 336 h, dose 100-200 mg/kg, time 14 day
[17] = system: Mus musculus; assay: Anti-inflammatory activity against C57BL/6J mouse model of TNFalpha-induced systemic inflammatory response syndrome (SIRS) assessed as decrease in IL-6 level in lung at 1.25 to 5 mg/kg,po 2 hrs prior to mTNFalpha and z-VAD-FMK stimulation for 8 hrs by ELISA; type: functional, organism-based; details: dose 1.25-5 mg/kg, time 10.0 hrs

O=C(Cc1cccc(OC(F)(F)F)c1)Nc1cc(-c2ccc3nc(NC(=O)C4CC4)sc3c2)ccc1F
Activity [1]: Non-Toxic | inhibition [2]: Dose-Dependent Effect | inhibition [3]: Active | Activity [4]: Non-Toxic | Activity [5]: Dose-Dependent Effect | Activity [6]: Non-Toxic | Activity [7]: Dose-Dependent Effect | Activity [8]: Dose-Dependent Effect | EC50 [9]: 17 nM | Activity [10]: Non-Toxic | Activity [11]: Non-Toxic | Activity [12]: inactive | Activity [13]: Active | Activity [14]: Active | Activity [15]: Active | Activity [16]: Non-Toxic | Activity [17]: Dose-Dependent Effect
